In patent publication US20260123654A1, “METHOD FOR IMPROVING THE BIOAVAILABILITY OF FUNCTIONAL FOOD PRODUCTS” (priority 2022, published 2026):

Tests used:
[1] = Triacylglycerols (TAG) content in rat serum after bolus intragastric administration of olive oil; assay type: in vivo, Wistar rats; conditions: 1, 2, and 3 hours after bolus intragastric administration of olive oil; xenon 280 vol. %, krypton 24 vol. %
Experimental: Studies on the effect of xenon on the absorption and transport of triacylglycerols were carried out in an experiment as described [Wang Z., Wang L., Zhang Z., Feng L., Song X., & Wu J. Apolipoprotein A-IV involves in glucose and lipid metabolism of rat//Nutrition & metabolism.-2019.-T. 16.- ? 1.-P. 1-9.], were performed on 12 Wistar rats weighing 320-360 g.
All animals were divided into 3 groups: 1-control, 2-experimental, 3-experimental. The animals were fasted for 6 hours before the experiment, and then rats of the control group (n=4) were injected intragastrically with bolus Extra Virgin olive oil (Aceites Toledo, Spain) at a dose of 1 ml/100 g body weight. […]
An introduction of gases into the oils was carried out using an emulsion production reactor with a volume of 11. […] A content of xenon and krypton in the oil was determined by a gas chromatography method. […]
Triacylglycerols (TAG) content was immediately determined in blood serum using enzyme kits from Chronolab (Spain). For this purpose, 10 μl of serum or standard TAG solution was added to 1 ml of a working reagent, incubated for 5 min at […] in a thermostat and an optical density at 500 nm was determined on a spectrophotometer.

[2] = Omega-3 index in male volunteers after intake of capsules; assay type: in vivo; conditions: xenon 5-250 vol. %, krypton 5-70 vol. % in Epax 5025 TGN
Experimental: Testing was carried out on 14 male volunteers, age from 38 to 47 years. Control and 5 experimental groups of 2 people each. […] For testing the control group, the product used was Epax Ultra Concentrates (Epax 5025 TGN), manufactured by Epax Norway AS. For experimental group 1 xenon was introduced into the product in concentration of 5 vol. %; for experimental group 2-20 vol. %; for experimental group 3-250 vol. %; for experimental group 4-krypton-5 vol. %; for experimental group 5-24 vol. %; for experimental group 6-70 vol. %. A product saturation with gases was done as described above, but at a small overpressure: krypton at 2.0 mPa, and xenon—0.2 mPa. All products (for control and experimental groups) were encapsulated in soft gelatin capsules weighing 0.5 g. All volunteers took 4 capsules per day, 2 in the morning and 2 in the evening, on an empty stomach. Omega-3 index tests were again taken after 1 month.

[3] = when injected into the body; cited from earlier work

[Kr] [krypton]
TAG levels versus control [1]: significant increase | effect on Omega-3 index [2]: dose-dependent increase

[Xe] [xenon]
TAG levels versus control [1]: significant increase | effect on Omega-3 index [2]: dose-dependent increase | time to complete elimination of the gas from the body [3]: ≤ 4 h
